Test system: ApoA-I mRNA
Assay: ApoA-I mRNA quantitation in HepG2 cells (real-time PCR)
Assay type: cell-based
Parameters: key: Active: An active compound is one that causes a >15% increase in ApoA-I mRNA at a concentration less than or equal to 100 uM
Settings: concentration less than or equal to 100 uM, fold induction relative to DMSO control
Method: At time of harvesting, the spent media was removed from the HepG2 cells and immediately placed on ice (for immediate use) or at −80° C. (for future use) in ApoA-I and albumin ELISAs. The cells remaining in the plate wells were rinsed in 200 μL PBS. PBS was carefully removed to avoid removing any loosely attached cells.
Once the PBS was removed, 85 μL cell lysis solution was added to the cells in each well and incubated for 5-10 min at room temperature, to allow for complete cell lysis and detachment. mRNA was then prepared using the “mRNA Catcher PLUS plate” from Invitrogen, according to the protocol supplied. After the last wash, as much wash buffer as possible was aspirated without allowing the wells to dry. Elution Buffer (E3, 80 μL) was then added to each well. mRNA was then eluted by incubating the mRNA Catcher PLUS plate with Elution Buffer for 5 min at 68° C. and then immediately placing the plate on ice.
The eluted mRNA was isolated and then used in a one-step real-time […]-PCR reaction, using components of the Ultra Sense Kit together with Applied Biosystems primer-probe mixes. Real-time PCR data was analyzed, using the Ct values, to determine the fold induction of each unknown sample, relative to the control (that is, relative to the control for each independent DMSO concentration).
The following compounds of Formula I were evaluated in this assay. An active compound is one that causes a >15% increase in ApoA-I mRNA at a concentration less than or equal to 100 uM.

Row | SMILES | Effect on ApoA-I mRNA levels
1 | COc1ccc(NC(=O)NCCOc2c(C)cc(-c3nc4cc(OC)cc(OC)c4c(=O)[nH]3)cc2C)cc1 [1-(2-(4-(5,7-dimethoxy-4-oxo-3,4-dihydroquinazolin-2-yl)-2,6-dimethylphenoxy)ethyl)-3-(4-methoxyphenyl)urea] | Active
2 | CNC(=O)NCCOc1c(C)cc(-c2nc3cc(OC)cc(OC)c3c(=O)[nH]2)cc1C [1-(2-(4-(5,7-dimethoxy-4-oxo-3,4-dihydroquinazolin-2-yl)-2,6-dimethylphenoxy)ethyl)-3-methylurea] | Active
3 | COc1cc(OC)c2c(=O)[nH]c(-c3cc(C)c(OCCNC(=O)Nc4ccccc4)c(C)c3)nc2c1 [1-(2-(4-(5,7-dimethoxy-4-oxo-3,4-dihydroquinazolin-2-yl)-2,6-dimethylphenoxy)ethyl)-3-phenylurea] | Active
4 | COc1cc(OC)c2c(=O)[nH]c(-c3cc(C)c(OC)c(C)c3)cc2n1 [2,4-dimethoxy-7-(4-methoxy-3,5-dimethylphenyl)-1,6-naphthyridin-5(6H)-one] | Active
5 | COc1cc(OC)c2c(=O)[nH]c(-c3ccc4c(c3)OCCO4)nc2c1 [2-(2,3-dihydrobenzo[b][1,4]dioxin-6-yl)-5,7-dimethoxyquinazolin-4(3H)-one] | Active
6 | COc1cc2nc(-c3ccc4c(c3)OCCO4)[nH]c(=O)c2cc1OC [2-(2,3-dihydrobenzo[b][1,4]dioxin-6-yl)-6,7-dimethoxyquinazolin-4(3H)-one] | Active
7 | O=c1[nH]c(-c2ccc3c(c2)OCCO3)nc2ccccc12 [2-(2,3-dihydrobenzo[b][1,4]dioxin-6-yl)quinazolin-4(3H)-one] | Active
8 | COc1cc(OC)c2c(=O)[nH]c(-c3cc(C)c(OCCN4C(=O)c5ccccc5C4=O)c(C)c3)nc2c1 [2-(2-(4-(5,7-dimethoxy-4-oxo-3,4-dihydroquinazolin-2-yl)-2,6-dimethylphenoxy)ethyl)isoindoline-1,3-dione] | Inactive
9 | COc1cc(OC)c2c(=O)[nH]c(-c3cccnc3Oc3ccc(Cl)cc3)nc2c1 [2-(2-(4-chlorophenoxy)pyridin-3-yl)-5,7-dimethoxyquinazolin-4(3H)-one] | Inactive
10 | COc1cc(OC)c2c(=O)[nH]c(-c3cc(C)nc(Cl)c3)nc2c1 [2-(2-chloro-6-methylpyridin-4-yl)-5,7-dimethoxyquinazolin-4(3H)-one] | Active
11 | COc1cc(OC)c2c(=O)[nH]c(-c3ccccc3Cl)nc2c1 [2-(2-chlorophenyl)-5,7-dimethoxyquinazolin-4(3H)-one] | Active
12 | COc1cc(OC)c2c(=O)[nH]c(-c3cc(C(C)(C)C)c(O)c(C(C)(C)C)c3)nc2c1 [2-(3,5-di-tert-butyl-4-hydroxyphenyl)-5,7-dimethoxyquinazolin-4(3H)-one] | Active
13 | COc1cc(OC)cc(-c2nc3cc(OC)cc(OC)c3c(=O)[nH]2)c1 [2-(3,5-dimethoxyphenyl)-5,7-dimethoxyquinazolin-4(3H)-one] | Active
14 | COc1cc(OC)c2c(=O)[nH]c(-c3cc(C)c(OCCN4CCCC4)c(C)c3)nc2c1 [2-(3,5-dimethyl-4-(2-(pyrrolidin-1-yl)ethoxy)phenyl)-5,7-dimethoxyquinazolin-4(3H)-one] | Active
15 | COc1cc(OC)c2c(=O)[nH]c(-c3cc(C)c(OCCN4CCOCC4)c(C)c3)nc2c1 [2-(3,5-dimethyl-4-(2-morpholinoethoxy)phenyl)-5,7-dimethoxyquinazolin-4(3H)-one] | Active
16 | Cc1cc(-c2nc3ccccc3c(=O)[nH]2)cc(C)c1OCCN1CCOCC1 [2-(3,5-dimethyl-4-(2-morpholinoethoxy)phenyl)quinazolin-4(3H)-one] | Active
17 | COc1cc(OC)c2c(=O)[nH]c(-c3cc(C)cc(C)c3)nc2c1 [2-(3,5-dimethylphenyl)-5,7-dimethoxyquinazolin-4(3H)-one] | Active
18 | COc1cc(OC)c2c(=O)[nH]c(-c3ccc(OCCO)c(Cl)c3)nc2c1 [2-(3-chloro-4-(2-hydroxyethoxy)phenyl)-5,7-dimethoxyquinazolin-4(3H)-one] | Active
19 | COc1cc(OC)c2c(=O)[nH]c(-c3ccc(O)c(Cl)c3)nc2c1 [2-(3-chloro-4-hydroxyphenyl)-5,7-dimethoxyquinazolin-4(3H)-one] | Active

Row | SMILES | Effect on ApoA-I mRNA levels
20 | COc1cc(OC)c2c(=O)[nH]c(-c3cc(C)c(OCCOCc4ccccc4)c(C)c3)nc2n1 [2-(4-(2-(benzyloxy)ethoxy)-3,5-dimethylphenyl)-5,7-dimethoxypyrido[2,3-d]pyrimidin-4(3H)-one] | Inactive
21 | COc1cc(OC)c2c(=O)[nH]c(-c3cc(C)c(OCCN)c(C)c3)nc2c1 [2-(4-(2-aminoethoxy)-3,5-dimethylphenyl)-5,7-dimethoxyquinazolin-4(3H)-one] | Active
22 | COc1cc(OC)c2c(=O)[nH]c(-c3cc(C)c(OCCO)c(C)c3)nc2n1 [2-(4-(2-hydroxyethoxy)-3,5-dimethylphenyl)-5,7-dimethoxypyrido[2,3-d]pyrimidin-4(3H)-one] | Active
23 | COc1cc(OC)c2c(=O)[nH]c(-c3cc(C)c(OCCO)c(C)c3)nc2c1 [2-(4-(2-hydroxyethoxy)-3,5-dimethylphenyl)-5,7-dimethoxyquinazolin-4(3H)-one] | Active
24 | Cc1cc(C)c2c(=O)[nH]c(-c3cc(C)c(OCCO)c(C)c3)nc2c1 [2-(4-(2-hydroxyethoxy)-3,5-dimethylphenyl)-5,7-dimethylquinazolin-4(3H)-one] | Active
25 | COc1cccc2nc(-c3cc(C)c(OCCO)c(C)c3)[nH]c(=O)c12 [2-(4-(2-hydroxyethoxy)-3,5-dimethylphenyl)-5-methoxyquinazolin-4(3H)-one] | Active
26 | COc1cc2nc(-c3cc(C)c(OCCO)c(C)c3)[nH]c(=O)c2cc1OC [2-(4-(2-hydroxyethoxy)-3,5-dimethylphenyl)-6,7-dimethoxyquinazolin-4(3H)-one] | Active
27 | COc1ccc2nc(-c3cc(C)c(OCCO)c(C)c3)[nH]c(=O)c2c1 [2-(4-(2-hydroxyethoxy)-3,5-dimethylphenyl)-6-methoxyquinazolin-4(3H)-one] | Active
28 | Cc1cc(-c2nc3ccccc3c(=O)[nH]2)cc(C)c1OCCO [2-(4-(2-hydroxyethoxy)-3,5-dimethylphenyl)quinazolin-4(3H)-one] | Active
29 | COc1cc(OC)c2c(=O)[nH]c(-c3ccc(OCCO)c(OC)c3)nc2c1 [2-(4-(2-hydroxyethoxy)-3-methoxyphenyl)-5,7-dimethoxyquinazolin-4(3H)-one] | Active
30 | COc1cc(OC)c2c(=O)[nH]c(-c3ccc(OCCO)c(C)c3)nc2c1 [2-(4-(2-hydroxyethoxy)-3-methylphenyl)-5,7-dimethoxyquinazolin-4(3H)-one] | Active
31 | NC(=O)COc1ccc(-c2nc3ccccc3c(=O)[nH]2)cc1 [2-(4-(4-oxo-3,4-dihydroquinazolin-2-yl)phenoxy)acetamide] | Active
32 | O=C(O)COc1ccc(-c2nc3ccccc3c(=O)[nH]2)cc1 [2-(4-(4-oxo-3,4-dihydroquinazolin-2-yl)phenoxy)acetic acid] | Active
33 | CNC(=O)OCCOc1c(C)cc(-c2nc3cc(OC)cc(OC)c3c(=O)[nH]2)cc1C [2-(4-(5,7-Dimethoxy-4-oxo-3,4-dihydroquinazolin-2-yl)-2,6-dimethyl-phenoxy)ethyl methylcarbamate] | Active
34 | CCCNC(=O)OCCOc1c(C)cc(-c2nc3cc(OC)cc(OC)c3c(=O)[nH]2)cc1C [2-(4-(5,7-Dimethoxy-4-oxo-3,4-dihydroquinazolin-2-yl)-2,6-dimethyl-phenoxy)ethyl propylcarbamate] | Active
35 | COc1cc(OC)c2c(=O)[nH]c(-c3cc(C)c(OCC(=O)O)c(C)c3)nc2c1 [2-(4-(5,7-dimethoxy-4-oxo-3,4-dihydroquinazolin-2-yl)-2,6-dimethylphenoxy)acetic acid] | Active
36 | COc1cc(OC)c2c(=O)[nH]c(-c3cc(C)c(OCCOC(=O)NC4CCCCC4)c(C)c3)nc2c1 [2-(4-(5,7-dimethoxy-4-oxo-3,4-dihydroquinazolin-2-yl)-2,6-dimethylphenoxy)ethyl cyclohexylcarbamate] | Active
37 | COc1cc(OC)c2c(=O)[nH]c(-c3ccc(OCC(=O)O)c(OC)c3)nc2c1 [2-(4-(5,7-dimethoxy-4-oxo-3,4-dihydroquinazolin-2-yl)-2-methoxyphenoxy)acetic acid] | Active
